Results: a melting point compilation (Tetko et al.)

| SMILES | melting point |
| --- | --- |
| Cc1nn(-c2ccccc2)c(Cl)c1CO | 89 to 91 °C |
| O=C1CC(c2ccccc2)N1 (configuration not stated) | 107 to 109 °C |
| Cc1cc(CSc2ccccc2C(=O)O)on1 | 157 to 161 °C |
| O=C(O)c1cccc(NC(=O)c2ccc(Br)cc2)c1 | 306 to 308 °C |
| Nc1ccc2c(c1)COC2 | 89 to 91 °C |
| CC(C)(C)OC(=O)NCc1ccc2c(c1)CCCN2 | 63 to 65 °C |
| Nc1c(NCCCO)c(=O)[nH]c(=O)n1Cc1ccccc1 | 155 to 157 °C |
| Cn1c(=O)n(CCC(=O)O)c2ccccc21 | 226 to 228 °C |
| COc1cc(C)ccc1OCC(=O)O | 118 to 120 °C |
| O=C(CCl)Nc1cccc(S(=O)(=O)N=C2CCCCCN2)c1 | 133 to 135 °C |
| N#CCC(=O)N1CCS(=O)(=O)CC1 | 157 to 159 °C |
| O=c1[nH]c(-c2cccc(Oc3ccccc3)c2)no1 | 189 to 191 °C |
| O=C(O)c1cccc(NS(=O)(=O)c2cccs2)c1 | 197 to 199 °C |
| N#Cc1ccc(N2CCC(N)CC2)nc1 | 70 to 72 °C |
| Oc1ccc(CN2CCCC2)c2cccnc12 | 112 to 114 °C |
| C=CCNc1ncc(C(=O)O)s1 | 169 to 171 °C |
| COc1cccc(CNC(=O)CCl)c1 | 100 to 104 °C |
| CC(=O)NCCc1ccc(C(=O)O)cc1 | 175 to 177 °C |
| CC(C)C(Br)C(=O)N1CCc2ccccc21 (configuration not stated) | 111 to 113 °C |
| N#Cc1cccc(C(F)(F)F)n1 | 36 to 38 °C |
| CC(C)S(=O)(=O)c1ccc(F)c(C(=O)O)c1 | 139 to 141 °C |
| Nc1ccc(Oc2ccc(Br)cc2)cc1 | 58 to 60 °C |
| O=S(=O)(Cl)Cc1ccc(F)cc1Br | 45 to 47 °C |
| CC(=O)c1cc2ccccc2[nH]1 | 149 to 151 °C |
| CCOC(=O)c1nc(Cl)c2ccccc2n1 | 99 to 101 °C |
| CC(=O)c1cc2c(cc1[N+](=O)[O-])OCO2 | 121 to 123 °C |

| SMILES | melting point |
| --- | --- |
| Sc1nc(-c2ccccc2)c(-c2ccccc2)n1Cc1ccccc1 | 280 to 282 °C |
| Cc1nc(N)nc(Cl)c1Br | 189 to 191 °C |
| O=C(O)CS(=O)(=O)CC(=O)Nc1ccc(Br)cc1 | 207 to 209 °C |
| COc1cc2c(C#N)c(OC)nc(N)c2c(N)n1 | 249 to 251 °C |
| CCCn1c(C)c(C(=O)OCC)c2cc(O)ccc21 | 179 to 181 °C |
| N#CCC(=O)NC1CC1 | 87 to 90 °C |
| CNS(=O)(=O)c1ccc(Br)s1 | 59 to 61 °C |
| O=Cc1coc2ccc([N+](=O)[O-])cc2c1=O | 157 to 161 °C |
| O=C(O)c1sccc1S(=O)(=O)N1CCC(CO)CC1 | 143 to 145 °C |
| O=C(O)COc1ccc(Br)cc1F | 106 to 108 °C |
| O=C(c1ccc(O)cc1)N1CCc2sccc2C1 | 200 to 202 °C |
| O=C(O)CSC1CCS(=O)(=O)C1 (configuration not stated) | < 17 °C |
| Cc1ccc(-c2nc(CCl)co2)cc1 | 97 to 99 °C |
| O=C(O)Cc1ccc(NC(=O)C2CC2)cc1 | 189 to 191 °C |
| COc1ccc(-n2c(C)cc(C(=O)O)c2C)cc1 | 232 to 234 °C |
| COC(=O)c1ccnc(Cl)c1 | 31 to 33 °C |
| NS(=O)(=O)c1ccc(-c2cccc(C(F)(F)F)c2)c(C(=O)O)c1 | 181 to 183 °C |
| O=C(O)c1ccc(N2CCCC2)c(F)c1 | 269 to 271 °C |
| O=C(O)c1cc2ccccc2c(=O)[nH]1 | 318 to 320 °C |
| Cc1ccc(S(=O)(=O)NCCC(=O)O)cc1 | 148 to 150 °C |
| COC(=O)CCCCCNC(=O)c1ccsc1 | 77 to 79 °C |
| O=C(O)c1csc(S(=O)(=O)N2CCc3ccccc3C2)c1 | 232 to 234 °C |
| C=CCn1c(S)nc2ccccc21 | 109 to 111 °C |
| CC(Cl)C(=O)c1ccc(NS(C)(=O)=O)cc1 (configuration not stated) | 189 to 192 °C |
| CC(Cl)C(=O)N1CCCC(C(N)=O)C1 (configuration not stated) | 114 to 116 °C |
| CCOc1ccc(O)c(C=O)c1 | 49 to 51 °C |

| SMILES | melting point |
| --- | --- |
| Cn1c(=O)c2cc(N)cnc2n(C)c1=O | 219 to 221 °C |
| Cc1cc(F)cc(C(=O)O)c1[N+](=O)[O-] | 161 to 163 °C |
| Cc1cc(C2(C)NC(=O)NC2=O)c(C)o1 (configuration not stated) | 144 to 146 °C |
| O=C(O)C=C(C1CC1)C1CC1 | 134 to 136 °C |
| N#Cc1c[nH]c2ccc(Cl)cc2c1=O | 381 to 383 °C |
| N#Cc1ccc(Oc2ccc(Cl)cc2)c(F)c1 | 67 to 69 °C |
| CNc1nc(C(=O)O)cs1 | 204 to 206 °C |
| CC1CN(c2ccc(N)cc2F)CC(C)O1 (configuration not stated) | 116 to 118 °C |
| CCCCc1ccc(C(=O)CCC(=O)O)cc1 | 113 to 115 °C |
| NC(=O)CCS(=O)(=O)CCCl | 139 to 141 °C |
| CN(C)c1cccc(Cl)c1C=O | 26 to 28 °C |
| Nc1ncncc1CO | 165 to 167 °C |
| CC1CC(C)CN(C(=O)c2ccccc2N)C1 (configuration not stated) | 97 to 99 °C |
| Nc1cccc(Cl)c1-n1cncn1 | 122 to 124 °C |
| CCOc1nnc(-c2ccccc2)n1-c1ccccc1 | 154 to 156 °C |
| N#Cc1cnn(-c2ccc(C(=O)O)cc2)c1N | 289 to 291 °C |
| N#CC1=C(C(=O)O)CCC1 | 108 to 110 °C |
| Nc1cc(F)c(Br)cc1N | 104 to 106 °C |
| [N-]=[N+]=Nc1ccc(Cl)c(Cl)c1 | 32 to 34 °C |
| O=C(O)CCCOc1ccc(Cl)cc1 | 114 to 116 °C |
| CN1CCN(C(N)=O)C(c2ccccc2)C1 (configuration not stated) | 94 to 96 °C |
| N#CCc1ccc(OCc2ccc(Cl)nc2)cc1 | 99 to 101 °C |
| C=CCN(c1ccccc1)S(=O)(=O)c1cccc(C(=O)O)c1 | 103 to 105 °C |
| CC(Cl)C(=O)Nc1ccc(N2CCCC2=O)cc1 (configuration not stated) | 194 to 196 °C |
| COc1ccc(Oc2ccc(N)cn2)cc1 | 95 to 97 °C |
| Nc1cncc(Cl)c1Cl | 97 to 99 °C |

| SMILES | melting point |
| --- | --- |
| Cc1csc(C2(N)CCCC2)n1 | 59 to 61 °C |
| COc1ccc(N2CC(C(=O)O)CC2=O)cc1OC (configuration not stated) | 201 to 203 °C |
| Cn1c(Cl)cc(=O)[nH]c1=O | 195 to 197 °C |
| Cc1cccc(-n2nc(C(C)(C)C)cc2N)c1 | 90 to 92 °C |
| O=Cc1ccccc1OCc1cn2ccccc2n1 | 123 to 125 °C |
| CCOc1ccc(Br)cc1S(N)(=O)=O | 143 to 145 °C |
| [N-]=[N+]=NCCN1C(=O)C(=O)c2ccccc21 | 71 to 73 °C |
| OC1CC(c2ccc(Br)cc2)C1 (configuration not stated) | 59 to 61 °C |
| Cc1nc(C)c(C(=O)O)o1 | 219 to 221 °C |
| CC=Cc1ccc(OCCCC(=O)OC)c(OC)c1 | 38 to 40 °C |
| N#Cc1ccc(NCC(=O)O)nc1 | 167 to 169 °C |
| O=C(O)c1sccc1C1CC1 | 169 to 171 °C |
| Cc1cc(C(=O)O)cc(S(N)(=O)=O)c1C | 266 to 268 °C |
| Cc1n[nH]c(C)c1S(=O)(=O)N1CCC(C)CC1 | 178 to 180 °C |
| O=C(O)C=C1CCOCC1 | 99 to 101 °C |
| CC(C)CCOc1ccc(C2(C)NC(=O)NC2=O)cc1 (configuration not stated) | 110 to 112 °C |
| CCCNCC(=O)Nc1ccc(Cl)cc1 | 44 to 46 °C |
| O=C(O)C1(S(=O)(=O)c2ccc(Cl)cc2)CC1 | 185 to 187 °C |
| CC(C)Cc1cc(C(=O)O)cc(O)n1 | 235 to 237 °C |
| Nc1cnc(Cl)cc1C(=O)O | 289 to 291 °C |
| CC(O)c1cn(-c2ccccc2)nn1 (configuration not stated) | 75 to 77 °C |
| O=C1c2ccccc2C(=O)N1Cc1ccnc2ccnn12 | 274 to 276 °C |
| COC(=O)c1cc(N)cc(I)c1 | 79 to 81 °C |
| COC(=O)c1ccc(OCCBr)c(Cl)c1 | 72 to 74 °C |
